Assay: in vitro
Conditions: human, hela cells, % viability

| SMILES | viability at 28.5 h, 10 µM [%] |
| --- | --- |
| CC(=O)c1c(-c2cccc(C(=O)N(C)C3CCN(C)C3)c2)cnn1C (centres unmarked) [CBK306633] | 106 |
| O=C(NC(c1ccc2c(c1)CCO2)[C@H]1C[C@@H](O)C1)c1c[nH]c(=O)c(Cl)c1 (some centres unmarked) [CBK306634] | 95 |
| Cn1ccnc1CNC(=O)c1cccc(OCC(=O)N2CCCCC2)c1 [CBK306635] | 86.8 |
| Cc1nc(CCNC(=O)N2CCC(Oc3cccnc3)CC2)sc1Cl [CBK306636] | 93.8 |
| Cc1cccc(OCC2CCCN(C(=O)CCc3nncn3C)C2)c1 (centres unmarked) [CBK306640] | 88.8 |
| Cn1ncc(N2CCC(CNC(=O)c3ccc(F)cc3Cl)C2)cc1=O (centres unmarked) [CBK306643] | 97.1 |
| CCn1cc(CN2CCC(Oc3cc(C)ccc3F)(C(=O)O)CC2)cn1 [CBK306644] | 96.1 |
| COC(=O)C1CCCN1C(=O)C1(Oc2ccc(C)cc2)CCNCC1 (centres unmarked) [CBK306655] | 96.5 |
| CCS(=O)(=O)NC1CC(C)(C)Cc2c1cnn2-c1ccc(OC)cc1 (centres unmarked) [CBK306656] | 116 |
| CCCCSc1nc(N)cc(N2CCOCC(CN(C)C)C2)n1 (centres unmarked) [CBK306659] | 103 |
| COc1ccccc1-n1nc(CC(C)C)nc1C(C)NS(C)(=O)=O (centres unmarked) [CBK306660] | 95.6 |
| Cc1[nH]c2ccccc2c1CCNC(=O)N(Cc1cnn(C)c1)C1CC1 [CBK306661] | 89 |
| Cc1cccn2c(CN3CC(O)C3)c(C(=O)N3CCCCC3)nc12 [CBK306662] | 88.3 |
| CCCCC(c1cccnc1)N(C)C(=O)CCc1ccnn1C (centres unmarked) [CBK306664] | 117 |
| Cc1nn(C)cc1CN(C)CC(=O)Nc1nc2c(s1)CC(C)CC2 (centres unmarked) [CBK306669] | 90.6 |
| CCN1CCN(Cc2cnc(-c3ccccn3)nc2)CC1=O [CBK306678] | 99.9 |
| CC(NC(=O)C1(Cn2ccnc2)CC1)c1nncn1C(C)C (centres unmarked) [CBK306682] | 99.5 |
| CN(Cc1cnn(C)c1)C(=O)COCc1nc2cc(F)ccc2[nH]1 [CBK306687] | 94.3 |
| CCOC(=O)C1(NC(=O)C2(Oc3cccnc3C)CCNCC2)CCC1 [CBK306688] | 89.9 |
| CN(CCN1CCCC1)c1nccc(N2CCN[C@H]3CS(=O)(=O)C[C@H]32)n1 [CBK306692] | 85.6 |
| CC(=O)Nc1ccc(CNC(=O)CN(C)Cc2nc(C3CC3)no2)cc1 [CBK306695] | 114 |
| Cc1nc(O)cc(C2CCCN(C(=O)c3csc4c3CCCC4)C2)n1 (centres unmarked) [CBK306696] | 87.3 |

| SMILES | viability at 28.5 h, 10 µM [%] |
| --- | --- |
| CCOc1ccc(NC(=O)N(CCOC)Cc2cnn(C)c2)cc1Cl [CBK306697] | 90.3 |
| CCCc1cc(C(=O)N[C@@H]2CCOC[C@H]2Oc2ccc(CO)cc2)cs1 [CBK306700] | 91.6 |
| CC(C)N(C(=O)c1ccccc1-c1cnc2nncn2c1)C(C)C [CBK306701] | 99.8 |
| CN(Cc1nc2c(s1)CCCC2)C(=O)CCn1nnc2ccccc21 [CBK306704] | 107 |
| O=C(NCc1csc2c1CCCC2)N1CCCC(c2cc(O)ncn2)C1 (centres unmarked) [CBK306705] | 99.3 |
| O=C(NC1CCNC1)c1cccc(S(=O)(=O)NCc2ccsc2)c1 (centres unmarked) [CBK306706] | 88 |
| COc1ccc2cc(C(=O)N3Cc4cnn(CCO)c4C3)n(C)c2c1 [CBK306707] | 94.5 |
| CCC(O)c1cc2n(n1)CCN(C(=O)c1cn(-c3ccccc3)nn1)C2 (centres unmarked) [CBK306708] | 93.7 |
| CCCCCN1CCn2nc(CNc3cnccn3)cc2C1 [CBK306713] | 77.2 |
| Cn1nc(NC(=O)c2cnccn2)c2c(N3CCOCC3)cccc21 [CBK306716] | 100 |
| Cc1cnn(-c2cc(N3CCC(n4cc(C5CC5)nn4)CC3)ncn2)c1 [CBK306721] | 96.2 |
| Cc1nn(C)cc1-c1c(C#N)c(N)nc2c1CN(Cc1ccco1)CC2 [CBK306722] | 90.4 |
| COCCN(Cc1cnn(C)c1)Cc1cc(O)c2cc(C)ccc2n1 [CBK306723] | 86.1 |
| COCCNc1nc2c(c(N3CCCCCC3)n1)CCNCC2 [CBK306724] | 104 |
| COc1cccn(CC(=O)N(C)CCc2scnc2C)c1=O [CBK306726] | 94.2 |
| COc1ccc(CN(C)C2CCOCC2)cc1Cn1cncn1 [CBK306728] | 93.9 |
| CCCS(=O)(=O)NC1CC(C)(C)Cc2c1cnn2-c1ccc(OC)cc1 (centres unmarked) [CBK306730] | 103 |
| CSc1nc(C(=O)N2CCCCC2c2cccc(F)c2)cs1 (centres unmarked) [CBK306732] | 108 |
| Cc1cc(C(F)(F)F)n(CC(C)CNC(=O)Cc2csc(C)n2)n1 (centres unmarked) [CBK306733] | 87.8 |
| CCNC(=O)N1CCCC(Cc2ccc(F)cc2F)(C(=O)OCC)C1 (centres unmarked) [CBK306734] | 81.9 |
| COCCc1nc(-c2csc(CN(C)C)n2)n(Cc2ccccc2C)n1 [CBK306735] | 107 |
| CCc1nccn1CCCNC(=O)Nc1cccnc1 [CBK306736] | 94.6 |

| SMILES | viability at 28.5 h, 10 µM [%] |
| --- | --- |
| CN(C)CC(O)c1cc2n(n1)CCCN(CC(=O)NCc1cccs1)C2 (centres unmarked) [CBK306738] | 91.6 |
| c1cnn(CCNc2nc3nonc3nc2N2CCCCC2)c1 [CBK306740] | 83.8 |
| COc1ccc(C(NC(=O)c2cn3ccsc3n2)[C@H]2C[C@H](O)C2)cn1 (some centres unmarked) [CBK306744] | 101 |
| Cc1ccc(Cl)cc1C(=O)N[C@H]1C[C@@H](c2nnc(CO)n2C2CC2)C1 [CBK306746] | 92.8 |
| Cn1ncc(N2CCC(CNC(=O)c3ccccc3Cl)C2)cc1=O (centres unmarked) [CBK306747] | 95.2 |
| Cc1cc(C(=O)N2CCC(c3nnc(CN(C)C)n3C)CC2)ccc1F [CBK306748] | 95.5 |
| CCOC(=O)C1CCCN(Cc2nc(-c3ccc(F)cc3F)oc2C)C1 (centres unmarked) [CBK306749] | 94.3 |
| CN1CCN(Cc2ccc(-c3ccc(C(N)=O)cc3)nc2)CC1 [CBK306750] | 87.3 |
| Cc1c(C(=O)N2CCCCC2CN2CCOCC2)[nH]c2c(F)cccc12 (centres unmarked) [CBK306751] | 105 |
| CCCN1CCC(NC(=O)c2cc(COc3cccc(F)c3)[nH]n2)CC1 [CBK306753] | 88.5 |
| COC1CCN(S(=O)(=O)c2cc(-n3cccn3)ccc2C)C1 (centres unmarked) [CBK306757] | 92.8 |
| COc1cc(C)cc(OC)c1-c1ncnc(C)c1C [CBK306762] | 85.7 |
| O=C(CN1CCCCCC1=O)NCC(CO)Cc1ccsc1 (centres unmarked) [CBK306763] | 118 |
| COc1ccc2c(c1)c(C(=O)N1CCn3nc(CO)cc3C1)c(C)n2C [CBK306764] | 88.5 |
| CN(CCCc1cnn(C)c1)c1nc(N)nc2c1CCCC2 [CBK306766] | 96.5 |
| O=C(O)C1(Oc2ccc3ccccc3c2)CCN(CC2CCOC2)CC1 (centres unmarked) [CBK306767] | 91.4 |
| CN(Cc1ncc[nH]1)C(=O)c1cn(Cc2cccc(C(F)(F)F)c2)nn1 [CBK306768] | 84.4 |
| CCN(CCN1CCOCC1)C(=O)c1[nH]c2c(F)cccc2c1C [CBK306772] | 90.3 |
| COc1cccc(CN2CCCC(NC(=O)c3ccccc3Cl)C2)c1 (centres unmarked) [CBK306774] | 117 |
| CCc1c(C)nc(C)nc1N1CCCn2nc(C(O)C3CC3)cc2C1 (centres unmarked) [CBK306778] | 100 |
| Cn1c(N2CC[C@H](O)C2)nc2cc(C(=O)NC3CCCC3)ccc21 [CBK306779] | 97.6 |

Source: publication PMC12040169 (PLOS Biology, 2025)
